The record followed here is patent US8575116B1, “Polyacetylenic compounds for protecting against pancreatic islet atrophy” (Academia Sinica, priority 2010, dated 2013).

The structures appear in SMILES notation.

For one data set, the system named is PKCα. Put plainly: PKCα translocation and phosphorylation (Western blot) in RIN-m5F cells. Format: cell-based, rat. The conditions noted are these: PMA 1 μM, glucose 16.7 mM. On the procedure:
(§1) FIGS. 5A-D show the effects of cytopiloyne on calcium mobilization, DAG generation and PKCa activation. (A) After Fura 2-AM loading, RIN-m5F cells were stimulated with 16.7 mM glucose (HG) and cytopiloyne at 7, 14 and 28 μM. Level of intracellular calcium, as shown by the 340/380 nm ratio, was detected using a fluorescence spectrophotometer. (B) RIN-m5F cells were pulsed with ^3H-myristic acid (5 Cim1^−1) for 16 hours. After washing, the cells were stimulated with glucose, cytopiloyne, PMA and glimepiride. Total lipids were separated on a silica thin layer plate. DAG and cholesterol were visualized with iodine vapor and identified by their standards. (C) RIN-m5F cells were incubated with vehicle (Mock), cytopiloyne (CP, 3, 7 and 14 μM), PMA (1 μM) and 16.7 mM (HG). Membrane or cytosolic proteins were subjected to Western blot with anti-PKCα and anti-Actin antibodies. (D) RIN-m5F cells were incubated with vehicle (Mock), cytopiloyne (CP 7 μM) and PMA (1 μM). After lysis, total lystaes were subjected to Western blot with anti-PKCα, anti-phospho-PKCα and anti-Actin antibodies.
A general note: Immunoblotting shows a protein as a band on a membrane.

The next data set has as its system STZ-treated C57BL mice. Put plainly: Blood glucose in STZ-treated (β-cell-depleted) C57BL mice. The data set is classed as in vivo, mouse. As to conditions: cytopiloyne oral 0.1, 0.5 and 2.5 mgkg^−1; insulin i.p. 2.5 IUkg^−1. On the procedure:
FIGS. 3A-C show cytopiloyne-mediated insulin release depends on pancreatic islet cells. (A) Rat pancreatic islet cells were incubated with glucose-free KRB buffer containing vehicle or cytopiloyne at 1.5, 3, 7, 14, 28 and 42 μM (FIG. 3A-i). Similarly, rat pancreatic islet cells were incubated with KRB buffer containing vehicle, glimepiride (GLM, 10 μM) or cytopiloyne at 1.5, 3, 7, 14, 28 and 42 μM in the presence of 3.3 mM glucose (LG, FIG. 3A-ii) or 16.7 mM glucose (HG, FIG. 3A-iii). The insulin levels were determined using an insulin ELISA kit. The data presented as mean±SEM of 3 independent experiments. (B) Fed C57BL mice, which had already received an injection of STZ, were administered with an oral dose of vehicle, cytopiloyne (CP, 0.1, 0.5 and 2.5 mgkg^−1), and an intraperitoneal injection of insulin (Ins, 2.5 IUkg^−1). Blood sugar levels in the STZ-treated mice were determined using a glucometer. […] Blood sugar levels in the STZ-treated mice were determined using a glucometer. All the results from 3 independent experiments are expressed as mean±SEM, and P<0.05 was considered to be statistically significant (*). […]
To deplete pancreatic β-cells in mice, 6-week-old C57BL females (NLAC, Taipei, Taiwan) were intraperitoneally injected with STZ at 200 mgkg^−1. […] Blood glucose levels were monitored for 4 h. […] Blood glucose levels in the mice were monitored from 0 to 4 h after insulin injection.

Data set [1] deals with rat pancreatic islet cells. In words: Insulin release from rat pancreatic islets (ELISA). The data set is classed as cell-based. As to the method: FIGS. 3A-C show cytopiloyne-mediated insulin release depends on pancreatic islet cells. (A) Rat pancreatic islet cells were incubated with glucose-free KRB buffer containing vehicle or cytopiloyne at 1.5, 3, 7, 14, 28 and 42 μM (FIG. 3A-i). Similarly, rat pancreatic islet cells were incubated with KRB buffer containing vehicle, glimepiride (GLM, 10 μM) or cytopiloyne at 1.5, 3, 7, 14, 28 and 42 μM in the presence of 3.3 mM glucose (LG, FIG. 3A-ii) or 16.7 mM glucose (HG, FIG. 3A-iii). The insulin levels were determined using an insulin ELISA kit. The data presented as mean±SEM of 3 independent experiments. (B) Fed C57BL mice, which had already received an injection of STZ, were administered with an oral dose of vehicle, cytopiloyne (CP, 0.1, 0.5 and 2.5 mgkg^−1), and an intraperitoneal injection of insulin (Ins, 2.5 IUkg^−1). Blood sugar levels in the STZ-treated mice were determined using a glucometer. (C) C57BL mice, which had already received STZ, were orally administered with a single dose of vehicle, cytopiloyne (CP, 0.5 and 2.5 mgkg^−1), glimepiride (GLM, 2.5 mgkg^−1), or metformin (60 mgkg^−1), followed by an intraperitoneal injection with insulin (Ins). Blood sugar levels in the STZ-treated mice were determined using a glucometer. All the results from 3 independent experiments are expressed as mean±SEM, and P<0.05 was considered to be statistically significant (*). The number of mice (n) is indicated in parentheses.
Glucose levels in mouse blood samples were measured using an Elite® glucometer (Bayer, Pittsburgh, Pa., USA). Insulin levels in blood samples or islet cell supernatants were determined by ELISA assays (Mercodia, Uppsala, Sweden). The levels of glycosylated HbA1c in mouse blood samples were measured using DCA 2000 analyzer (Bayer, Pittsburgh, Pa., USA).
Pancreatic islets (10 isletsml^−1) from fasted male Wistar rats were incubated with KRB buffer containing vehicle (1 μl DMSO per ml KRB buffer), glimepiride or cytopiloyne in the absence or presence of glucose for 30 min. The KRB buffer was then collected for ELISA assays.

For the next data set, the system named is db/db mice. Put plainly: Prophylaxis of diabetes in diabetes-free db/db mice. The data set is classed as in vivo, mouse. The conditions noted are these: 0.5 mgkg^−1 daily for 4 weeks, diabetes-free db/db mice aged 4 weeks. On the procedure:
FIGS. 2A-B show the prophylactic effect of cytopiloyne in db/db mice. […] Postprandial blood glucose levels in these mice were measured. (B) Blood insulin levels from the mice of […] were measured. Results from 3 independent experiments are expressed as mean±SEM, and P<0.05 was considered to be statistically significant (*).
After 0.5 h, the levels of postprandial blood sugar and insulin from the mice were monitored for additional 4 h. For continued administration, diabetic db/db males were grouped and tube-fed with vehicle, cytopiloyne (0.5 or 2.5 mgkg^−1 day^−1) or glimepiride (2.5 mg kg^−1 day^−1) for the indicated time, while levels of blood sugar, insulin, and glycosylated HbA1c, and glucose tolerance in these mice were determined. To evaluate the prophylaxis of diabetes, diabetes-free db/db mice at 4 weeks of age were tube-fed with vehicle or cytopiloyne (CP, 0.5 mgkg^−1), once a day, for 4 weeks. Unless indicated otherwise, the mice were fasted for 16 h, then Postprandial blood glucose and insulin in these mice were measured.

The test system of another data set is 3T3-L1 cells. Format: cell-based, mouse. As to conditions: differentiating 3T3-L1 cells; glimepiride 10 μM, rosiglitazone 1 μM, cytopiloyne 50 μM.
In a further data set the test system is HIT-T15 cells. Put plainly: Insulin secretion of β-cell line with PMA, GF109203X and cytopiloyne (ELISA). The conditions noted are these: FIG. 6A; glucose 16.7 mM. The data set is classed as cell-based, rat.
The subject of the next data set is RIN-m5F cells. In words: Intracellular calcium (Fura 2-AM) in RIN-m5F cells. The data set is classed as cell-based, rat. As to conditions: cytopiloyne 7, 14 and 28 μM, glucose 16.7 mM. As to the method:
as §1, with “After lysis, total lystaes were subjected to Western blot with anti-PKCα, anti-phospho-PKCα and anti-Actin antibodies.” left out
RIN-m5F cells were pre-loaded with Fura 2-AM (5 μM) in modified Krebs-Henseleit buffer for 30 min at 25° C. […] Intracellular calcium of the cells was measured using a fluorescence spectrophotometer (CAF 110, Jasco, Tokyo, Japan) at excitation wavelengths of 340 and 380 nm and an emission wavelength of 500 nm. The ratio of fluorescence intensity at 340 nm to that at 380 nm represents the level of intracellular calcium.

As for `CC#CC#CC#CC#CCCC(CO)O[C@@H]1O[C@H](CO)[C@@H](O)[C@H](O)[C@H]1O` (stereo partly drawn) [cytopiloyne, 2-β-D-glucopyranosyloxy-1-hydroxytrideca-5,7,9,11-tetrayne], in the data set with PKCα (cytopiloyne 7 μM), the “phosphorylation of PKCα” value was “increased phosphorylation of PKCα”. In addition, the “translocation of PKCα from cytoplasm to membrane” value in the data set on PKCα (cytopiloyne 3, 7 and 14 μM) was “It was the case”. Also, the “reduction of hyperglycemia / blood glucose in β-cell-depleted mice” value in the data set with STZ-treated C57BL mice is given as “lost its ability in regulating both responses”. In data set [1] (16.7 mM glucose KRB, also glucose-free and low glucose media), the “insulin secretion from rat islets” value is listed as “enhanced insulin secretion in high glucose medium”. Further, the “insulin secretion in the absence of glucose” value in data set [1] (high dose, glucose-free KRB buffer) is listed as “can still stimulate insulin secretion to some extent even in the absence of glucose”. Moreover, the “insulin release in pancreatic islets, glucose dependence” value in data set [1] (low dose (e.g., 3 μM), 0, 3.3 and 16.7 mM glucose) was “simulates insulin release in pancreatic islets in a glucose-dependent manner”. Besides, in the data set with db/db mice, the “blood sugar control in prophylactic treatment” value is listed as “control blood sugar in these mice much better than the control” and the “prevention of T2D” value was “failed to prevent the disease”. The “lipid accumulation (lipid droplets, Oil red O)” value in the data set on 3T3-L1 cells is given as “same basal level of lipid droplets as the control”. The “insulin secretion in β-cell line” value in the data set with HIT-T15 cells is on record as “stimulated insulin secretion”. The “intracellular calcium (340/380 nm ratio)” value in the data set with RIN-m5F cells was “increased intracellular calcium in a dose-dependent manner”.
